{"source": "patent US12257339B2", "about": "“Phytocomplex and extract of a meristematic cell line selected from a plant belonging to the genus Rosa” (AETHERA BIOTECH S.R.L., priority 2019, dated 2025)", "assay": "Antioxidant activity, DPPH method", "assay_type": "biochemical", "conditions": "methanol extract/solution; absorbance at 517 nm", "protocol": "The assay of antioxidant activity was performed using the DPPH method. The assay with the DPPH (2,2-diphenyl-1-picryl-hydrazyl) radical has the aim of evaluating, in vitro, the antioxidant activity of the line of Rosa […] vis-à-vis a stained stable radical and measuring its disappearance by spectrophotometry. […] The Rc-F2P homogenate of meristematic cells of Rosa […] extracted in methanol and placed in an ultrasonic bath for 20 minutes. Various aliquots of solution were taken and they were added to a same amount of DPPH solution and brought to volume with methanol, so as to evaluate the antioxidant capacity of the sample at different concentrations. The results are expressed as EC50, i.e. as the concentration of the Rc-F2P phytocomplex capable of decreasing the initial absorbance of the radical at 517 nm by 50%. The result is then compared with that obtained from a methanol solution of ascorbic acid, used as a reference. The lower the EC50, the greater the antioxidant capacity.", "data": [{"compound": "O=C1O[C@H]([C@@H](O)CO)C(O)=C1O", "note": "[Ascorbic acid, ascorbic acid]", "values": [{"measurement": "EC50 (concentration decreasing the initial absorbance of the DPPH radical at 517 nm by 50%)", "result": "3.19 ± 0.16", "unit": "µg/mL"}]}]}
